Literature values as cited in patent publication US7427493B2, “Recombinant genes for polyketide modifying enzymes” (Kosan Biosciences Incorporated, priority 2002, dated 2008).

System: parasites
Conditions: background statement

CC[C@H]1OC(=O)[C@H](C)[C@@H](O[C@H]2C[C@@](C)(OC)[C@@H](O)[C@H](C)O2)[C@H](C)[C@@H](O[C@@H]2O[C@H](C)C[C@H](N(C)C)[C@H]2O)[C@](C)(O)C[C@@H](C)C(=O)[C@H](C)[C@@H](O)[C@]1(C)O [erythromycin]
antiparasitic activity: does not have antiparasitic activity
